Measurements as given in PubChem BioAssay AID720589 (Broad Institute, 2013).

Tested on: HepG2 viability, ATP luminescence (CellTiter-Glo), 72 h
Assay: HepG2 hepatoma cell cytotoxicity, dose response, cytotoxicity control, CellTiter-Glo luminescence, cherry-pick, set 3 (AID 720589)

SMILES | AC35 [µM]
C[C@@H]1CN([C@@H](C)CO)C(=O)c2cc(NC(=O)c3ccccc3)ccc2O[C@@H](C)CCCCO[C@H]1CN(C)C(=O)Nc1cccc2ccccc12 | 0.927
COc1cc(C(=O)N2CCC(N3CCN(C)CC3)CC2)ccc1Nc1ncc2c(n1)N(C)c1ccccc1C(=O)N2C | 11.4
C[C@H](CO)N1C[C@H](C)[C@H](CN(C)Cc2ccc(C(=O)Nc3ccccc3N)cc2)Oc2ccc(N(C)C)cc2C1=O | 18.2
O=C1c2ccccc2C(=O)c2cc(N3CCCCC3)ccc21 | 12.5
C=C(C(=O)c1ccccc1)C(C)C(=C)C(=O)c1ccccc1 | 10.2
Nc1nc(N)c2c(ccc3nccc32)[nH]1 | 4.84
COC(=O)Cc1[nH]n(-c2nc3ccccc3s2)c(=O)c1C(C)=Nc1ccc(C)cc1 | 17.8
C[C@@H]1O[C@@H](O[C@@H]2C=C3CC[C@@H]4C(CC[C@]5(C)[C@@H](c6ccc(=O)oc6)CC[C@]45O)[C@@]3(C)CC2)[C@H](O)[C@H](O)[C@H]1O (some centres not stated) | 0.0735
OCC1OC(n2cnc3c(NCc4ccco4)ncnc32)C(O)C1O (configuration not stated) | 3.82
Cc1ccc(/C=N/Nc2ccnc3cc(Cl)ccc23)c(C)c1 | 5.3
C[C@]12CC[C@H](O)C[C@H]1CC[C@@H]1[C@@H]2C[C@@H](O)[C@]2(C)[C@@H](C3=CC(=O)OC3)CC[C@]12O | 0.373
CCCCC[C@H](C)N1C[C@H](COCc2ccccc2)Oc2cc(N3CC[C@@H](N(C)C)C3)ccc2S1(=O)=O | 6.56
O=C(CCc1ccccc1)NC(c1cccs1)c1cc(Cl)c2cccnc2c1O (configuration not stated) | 7.07
COc1ccc(-c2cc(CNc3nc(NC(C)C)nc4cc(-c5ccccc5)sc34)on2)cc1 | 11
O=C(Nc1ccc(Br)cc1)c1ccc(F)c(S(=O)(=O)N2CCN(c3ccccn3)CC2)c1 | 2.69
CCc1nc(N)nc(N)c1-c1ccc(Cl)cc1 | 6.43
Cc1c(CC(=O)NCCCC(=O)O)c(=O)oc2cc3c(cc12)CCC(C)(C)O3 | 16.3
CCN(CC)C(=O)CN1C(=O)C(=O)c2ccccc21 | 7.54
COc1cc2c(cc1OC)C(C)N(C(=O)c1cc(Cl)nc(Cl)c1)CC2 (configuration not stated) | 12.3

SMILES | AC35 [µM]
Cc1ccc(S(=O)(=O)Nc2ccc3c(c2)C(=O)N([C@@H](C)CO)C[C@H](C)[C@@H](CN(C)Cc2ccc(C(F)(F)F)cc2)OCCCC[C@@H](C)O3)cc1 | 13.2
COC1C(C)OC(OC2CC(C)(O)Cc3cc4c(c(O)c32)C(=O)c2c(O)cc3c(c2C4=O)OC2OC3(C)C(O)C(N(C)C)C2O)C(OC)C1(C)OC (configuration not stated) | 0.133
C=CCOC(=O)c1sc(NC(=O)c2ccc(OC)cc2)nc1C | 6.33
CCCCCCCN(c1ccccc1)[C@@H]1C[C@H]2CCCC(=O)N3CC[C@@H](C1)[C@@H]23 | 17.3
BrC(=C\c1ccccc1)/C=N/n1cnnc1 | 16.6
COc1cc(/C=N/NC(=O)c2csc3c2CCCC3)cc(OC)c1O | 20
C[C@H]1CN([C@@H](C)CO)C(=O)c2cc(NC(=O)C3CCCCC3)ccc2O[C@H]1CN(C)Cc1ccc(C(=O)Nc2ccccc2N)cc1 | 1.47
C[C@H](CO)N1C[C@H](C)[C@H](CN(C)Cc2ccc(C(=O)Nc3ccccc3N)cc2)Oc2ccc(NC(=O)C3CC3)cc2CC1=O | 0.74
C(=N\Nc1nc2ccccc2s1)/c1ccccn1 | 4.83
C[C@@H]1O[C@@H](O[C@@H]2C=C3CCC4C(CC[C@]5(C)[C@@H](c6ccc(=O)oc6)CC[C@]45O)[C@@]3(C)CC2)[C@H](O)[C@H](O)[C@H]1O (some centres not stated) | 0.068
COc1ccc(CC(N)c2csc(NC(=O)Nc3cccc(C(F)(F)F)c3)n2)cc1 (configuration not stated) | 6.15
O=C(N/N=C/c1cccs1)c1n[nH]c2c1CCCC2 | 17.7
O=C1NC(=O)N(c2ccccc2)C(=O)/C1=C\C=C\c1ccccc1 | 5.21
C[C@H]1O[C@@H](O[C@H]2[C@@H](O)C[C@H](O[C@H]3[C@@H](O)C[C@H](O[C@H]4CC[C@@]5(C)[C@H](CC[C@@H]6[C@@H]5C[C@@H](O)[C@]5(C)[C@@H](C7=CC(=O)OC7)CC[C@]65O)C4)O[C@@H]3C)O[C@@H]2C)C[C@H](O)[C@@H]1O | 0.155
CCN1/C(=C/C=C/c2oc3ccc(-c4ccccc4)cc3[n+]2CC)Oc2ccc(-c3ccccc3)cc21 | 2.37
O=c1ccc2[n+]([O-])c3ccc(O)cc3oc-2c1 | 5.65
CN1C(=O)c2cc(NC(=O)c3ccc(C(F)(F)F)cc3)ccc2OC[C@@H]2O[C@@H](CC(=O)NC3Cc4ccccc4C3)CC[C@H]21 | 7.45
Cc1cc2sc3ccc(C#CC4(O)CCCCC4)cc3c(=O)c2cc1C | 21.6
